Reference: US20250122234A1, “NOVEL CRYSTALLINE FORM OF [(2R,3S,4R,5R)-3,4-DIHYDROXY-5-[4-(HYDROXYAMINO)-2- OXOPYRIMIDIN-1-YL]OXOLAN-2-YL]METHYL-2-METHYLPROPANOATE” (priority 2021, published 2025)

How the values were obtained:
[1] = hygroscopicity, weight increase on exposure to water vapor in climatic chamber; assay type: physicochemical; conditions: 24 hours, temperature (25±1)°C, relative humidity (80±2)%, 200 mg sample
influenza A viruses = system: influenza A viruses; parameters: species or system mice; conditions: mouse, in vivo, po
[2] = study of physicochemical and technological properties

Structure (SMILES) | X (%), increase in the weight of the test substance [1] [%] | clinical symptoms of the disease (influenza A viruses) | titer of the virus in the nasal wash and fever (influenza A viruses) | solubility [2] | stability [2] | virus titer in the nasal wash, less than in groups 2 and 3 (crystal forms I, II) (influenza A viruses)
CC(C)C(=O)OC[C@H]1O[C@@H](n2ccc(NO)nc2=O)[C@H](O)[C@@H]1O [Polymorph I, [(2R,3S,4R,5R)-3,4-dihydroxy-5-[4-(hydroxyamino)-2-oxopyrimidin-1-yl]oxolan-2-yl]methyl-2-methylpropanoate] | 4.1 | some animals showed a decrease in body weight and shortness of breath | a decrease in the titer of the virus in the nasal wash and a decrease in fever |  |  | 
CC(C)C(=O)OC[C@H]1O[C@@H](n2ccc(NO)nc2=O)[C@H](O)[C@@H]1O [Polymorph II, [(2R,3S,4R,5R)-3,4-dihydroxy-5-[4-(hydroxyamino)-2-oxopyrimidin-1-yl]oxolan-2-yl]methyl-2-methylpropanoate] | 5.2 | some animals showed a decrease in body weight and shortness of breath | a decrease in the titer of the virus in the nasal wash and a decrease in fever |  |  | 
CC(C)C(=O)OC[C@H]1O[C@@H](n2ccc(NO)nc2=O)[C@H](O)[C@@H]1O [[(2R,3S,4R,5R)-3,4-dihydroxy-5-[4-(hydroxyamino)-2-oxopyrimidin-1-yl]oxolan-2-yl]methyl-2-methylpropanoate] | 0.5 | clinical symptoms of the disease were practically not recorded | a decrease in the titer of the virus in the nasal wash and a decrease in fever | higher solubility | improving the stability | approximately 20%
